From patent US9862707B2, “TrkA kinase inhibitors, compositions and methods thereof” (Merck Sharp & Dohme Corp., priority 2014, dated 2018)

The molecules below were run against human TrkA receptor (Homo sapiens (Human), UniProt P04629) (assay: TrkA functional activity, DiscoverX PathHunter assay). Settings: U2OS cells expressing human TrkA-PK, Shc1-EA and p75NTR; compound 1 h, then NGF at ~80% of maximal response for 3 h; luminescence.
Format: cell-based

Chain of human TrkA receptor (P04629 33-796): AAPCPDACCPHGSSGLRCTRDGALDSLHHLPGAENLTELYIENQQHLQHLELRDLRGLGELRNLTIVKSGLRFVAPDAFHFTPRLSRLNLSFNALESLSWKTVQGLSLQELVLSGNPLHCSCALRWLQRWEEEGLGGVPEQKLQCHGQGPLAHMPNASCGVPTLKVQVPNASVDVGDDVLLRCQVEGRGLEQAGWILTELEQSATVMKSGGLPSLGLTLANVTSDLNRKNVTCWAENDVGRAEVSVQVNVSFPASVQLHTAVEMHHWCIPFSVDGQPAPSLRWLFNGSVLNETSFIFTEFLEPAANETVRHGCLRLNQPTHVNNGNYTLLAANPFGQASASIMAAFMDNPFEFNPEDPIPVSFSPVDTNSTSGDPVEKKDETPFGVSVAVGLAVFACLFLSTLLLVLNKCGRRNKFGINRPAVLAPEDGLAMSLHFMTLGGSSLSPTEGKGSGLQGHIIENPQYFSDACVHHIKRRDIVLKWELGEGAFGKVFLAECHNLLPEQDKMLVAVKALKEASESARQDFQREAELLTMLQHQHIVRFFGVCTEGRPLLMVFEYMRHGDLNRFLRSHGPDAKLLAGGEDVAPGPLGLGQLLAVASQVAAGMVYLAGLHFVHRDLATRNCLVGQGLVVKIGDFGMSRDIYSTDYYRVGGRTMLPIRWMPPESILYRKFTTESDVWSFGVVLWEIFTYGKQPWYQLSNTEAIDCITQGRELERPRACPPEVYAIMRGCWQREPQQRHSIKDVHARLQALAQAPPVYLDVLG

Structure (SMILES)	IC50 [nM]
Cn1ccc(-c2cc(C(=O)Nc3c4cc(C5(O)CC5)ccc4nn3-c3ccccc3)ccc2C(F)(F)F)n1 [Compound 51, N-[5-(1-hydroxycyclopropyl)-2-phenyl-2H-indazol-3-yl]-3-(1-methyl-1H-pyrazol-3-yl)-4-(trifluoromethyl)benzamide]	6.4
NCc1cnc2c(NC(=O)c3cc(-c4ncccn4)c(C(F)(F)F)cc3F)n(-c3ccccc3)nc2c1 [Compound 66, N-(6-(Aminomethyl)-2-phenyl-2H-pyrazolo[4,3-b]pyridin-3-yl)-2-fluoro-5-(pyrimidin-2-yl)-4-(trifluoromethyl)benzamide]	71
CN(C)Cc1ccc2nn(-c3ccccc3)c(NC(=O)c3ccc(C(F)(F)F)c(-c4ccn(C)n4)c3)c2c1 [Compound 68, N-{5-[(dimethylamino)methyl]-2-phenyl-2H-indazol-3-yl}-3-(1-methyl-1H-pyrazol-3-yl)-4-(trifluoromethyl)benzamide]	21
Cn1ccc(-c2cc(C(=O)Nc3c4ccc(CNCCO)cc4nn3-c3ccccc3)c(F)cc2C(F)(F)F)n1 [Compound 72, 2-fluoro-N-(6-{[(2-hydroxyethyl)amino]methyl}-2-phenyl-2H-indazol-3-yl)-5-(1-methyl-1H-pyrazol-3-yl)-4-(trifluoromethyl)benzamide]	6.5
NC(=O)c1cnc2c(NC(=O)c3cc(-c4ncccn4)c(C(F)(F)F)cc3F)n(-c3ccccc3)nc2c1 [Compound 75, 3-(2-Fluoro-5-(pyrimidin-2-yl)-4-(trifluoromethyl)benzamido)-2-phenyl-2H-pyrazolo[4,3-b]pyridine-6-carboxamide]	7.2
NC(=O)c1cc2nn(-c3ccccc3)c(NC(=O)c3cc(-c4ncccn4)c(C(F)(F)F)cc3F)c2cn1 [Compound 76, 3-(2-Fluoro-5-(pyrimidin-2-yl)-4-(trifluoromethyl)benzamido)-2-phenyl-2H-pyrazolo[4,3-c]pyridine-6-carboxamide]	36
Cn1ccc(-c2cc(C(=O)Nc3c4cc(C(N)=O)ccc4nn3-c3ccccc3)ccc2C(F)(F)F)n1 [Compound 79, 3-({[3-(1-methyl-1H-pyrazol-3-yl)-4-(trifluoromethyl)phenyl]carbonyl}amino)-2-phenyl-2H-indazole-5-carboxamide]	11
NC(=O)c1ccc2nn(-c3ccccc3)c(NC(=O)c3cc(-c4ncccn4)c(C(F)(F)F)cc3F)c2n1 [Compound 80, 3-({[2-fluoro-5-pyrimidin-2-yl-4-(trifluoromethyl)phenyl]carbonyl}amino)-2-phenyl-2H-pyrazolo[4,3-b]pyridine-5-carboxamide]	32
NC(=O)c1cnc2c(NC(=O)c3ccc(C(F)(F)F)c(-c4ncccn4)c3)n(-c3ccccc3)nc2c1 [Compound 88, 2-phenyl-3-({[3-pyrimidin-2-yl-4-(trifluoromethyl)phenyl]carbonyl}amino)-2H-pyrazolo[4,3-b]pyridine-6-carboxamide]	13
NC(=O)c1cccc2c(NC(=O)c3cc(-c4ncccn4)c(C(F)(F)F)cc3F)n(-c3ccccc3)nc12 [Compound 89, 3-({[2-fluoro-5-pyrimidin-2-yl-4-(trifluoromethyl)phenyl]carbonyl}amino)-2-phenyl-2H-indazole-7-carboxamide]	11
O=C(NCCO)c1ccc2c(NC(=O)c3cc(-c4ncccn4)c(C(F)(F)F)cc3Cl)n(-c3ccccc3)nc2c1 [Compound 90, 3-({[2-chloro-5-pyrimidin-2-yl-4-(trifluoromethyl)phenyl]carbonyl}amino)-N-(2-hydroxyethyl)-2-phenyl-2H-indazole-6-carboxamide]	14
Cc1ccccc1-n1nc2cc(C(N)=O)cnc2c1NC(=O)c1cc(-c2ncccn2)c(C(F)(F)F)cc1F [Compound 91, 3-({[2-fluoro-5-pyrimidin-2-yl-4-(trifluoromethyl)phenyl]carbonyl}amino)-2-(2-methylphenyl)-2H-pyrazolo[4,3-b]pyridine-6-carboxamide]	52
O=C(NCCO)c1ccc2c(NC(=O)c3cc(-c4ncccn4)c(C(F)(F)F)cc3F)n(-c3ccccc3)nc2c1 [Compound 92, 3-({[2-fluoro-5-pyrimidin-2-yl-4-(trifluoromethyl)phenyl]carbonyl}amino)-N-(2-hydroxyethyl)-2-phenyl-2H-indazole-6-carboxamide]	11
Cc1ccccc1-n1nc2cc(C(N)=O)ccc2c1NC(=O)c1cc(-c2ncccn2)c(C(F)(F)F)cc1F [Compound 93, 3-({[2-fluoro-5-pyrimidin-2-yl-4-(trifluoromethyl)phenyl]carbonyl}amino)-2-(2-methylphenyl)-2H-indazole-6-carboxamide]	32
CNC(=O)Cc1ccc2c(NC(=O)c3cc(-c4ncccn4)c(C(F)(F)F)cc3F)n(-c3ccccc3)nc2c1 [Compound 96, 2-fluoro-N-{6-[2-(methylamino)-2-oxoethyl]-2-phenyl-2H-indazol-3-yl}-5-pyrimidin-2-yl-4-(trifluoromethyl)benzamide]	8.9

Now those with a lower IC50, led by results:

IC50 [nM]	Structure (SMILES)
6.1	NC(=O)c1ccc2c(NC(=O)c3cc(-c4ccccn4)c(C(F)(F)F)cc3Cl)n(-c3ccccc3)nc2c1 [Compound 83, 3-({[2-chloro-5-pyridin-2-yl-4-(trifluoromethyl)phenyl]carbonyl}amino)-2-phenyl-2H-indazole-6-carboxamide]
4.4	NC(=O)Cc1ccc2c(NC(=O)c3cc(-c4ncccn4)c(C(F)(F)F)cc3F)n(-c3ccccc3)nc2c1 [Compound 94, N-(6-(2-Amino-2-oxoethyl)-2-phenyl-2H-indazol-3-yl)-2-fluoro-5-(pyrimidin-2-yl)-4-(trifluoromethyl)benzamide]
3.6	NC(=O)c1ccc2c(NC(=O)c3cc(-c4cc[nH]n4)c(C(F)(F)F)cc3F)n(-c3ccccc3)nc2c1 [Compound 78, 3-({[2-fluoro-5-(1H-pyrazol-3-yl)-4-(trifluoromethyl)phenyl]carbonyl}amino)-2-phenyl-2H-indazole-6-carboxamide]
3.3	NC(=O)c1cnc2c(NC(=O)c3cc(-c4ccccn4)c(C(F)(F)F)cc3Cl)n(-c3ccccc3)nc2c1 [Compound 85, 3-({[2-chloro-5-pyridin-2-yl-4-(trifluoromethyl)phenyl]carbonyl}amino)-2-phenyl-2H-pyrazolo[4,3-b]pyridine-6-carboxamide]
3.1	O=C(Nc1c2cc(CCO)ccc2nn1-c1ccccc1)c1cc(-c2ncccn2)c(C(F)(F)F)cc1F [Compound 61, 2-fluoro-N-[5-(2-hydroxyethyl)-2-phenyl-2H-indazol-3-yl]-5-pyrimidin-2-yl-4-(trifluoromethyl)benzamide]
3.1	NC(=O)c1ccc2c(NC(=O)c3cc(-c4ncccn4)c(C(F)(F)F)cc3F)n(-c3ccccc3)nc2c1 [Compound 73, 3-(2-Fluoro-5-(pyrimidin-2-yl)-4-(trifluoromethyl)benzamido)-2-phenyl-2H-indazole-6-carboxamide]
2.9	NC(=O)c1ccc2c(NC(=O)c3cc(-c4ccccn4)c(C(F)(F)F)cc3F)n(-c3ccccc3)nc2c1 [Compound 81, 3-({[2-fluoro-5-pyridin-2-yl-4-(trifluoromethyl)phenyl]carbonyl}amino)-2-phenyl-2H-indazole-6-carboxamide]
2.8	Cn1ccc(-c2cc(C(=O)Nc3c4ncc(C(N)=O)cc4nn3-c3ccccc3)ccc2C(F)(F)F)n1 [Compound 86, 3-({[3-(1-methyl-1H-pyrazol-3-yl)-4-(trifluoromethyl)phenyl]carbonyl}amino)-2-phenyl-2H-pyrazolo[4,3-b]pyridine-6-carboxamide]
2.7	Cn1ccc(-c2cc(C(=O)Nc3c4ccc(C(N)=O)cc4nn3-c3ccccc3)ccc2C(F)(F)F)n1 [Compound 82, 3-({[3-(1-methyl-1H-pyrazol-3-yl)-4-(trifluoromethyl)phenyl]carbonyl}amino)-2-phenyl-2H-indazole-6-carboxamide]
2.6	NC(=O)c1cnc2c(NC(=O)c3cc(-c4ccccn4)c(C(F)(F)F)cc3F)n(-c3ccccc3)nc2c1 [Compound 84, 3-({[2-fluoro-5-pyridin-2-yl-4-(trifluoromethyl)phenyl]carbonyl}amino)-2-phenyl-2H-pyrazolo[4,3-b]pyridine-6-carboxamide]
2.2	O=C(Nc1c2ccc(CCO)cc2nn1-c1ccccc1)c1cc(-c2ncccn2)c(C(F)(F)F)cc1F [Compound 60, 2-Fluoro-N-(6-(2-hydroxyethyl)-2-phenyl-2H-indazol-3-yl)-5-(pyrimidin-2-yl)-4-(trifluoromethyl)benzamide]
1.8	Cn1ccc(-c2cc(C(=O)Nc3c4ccc(CN)cc4nn3-c3ccccc3)c(F)cc2C(F)(F)F)n1 [Compound 71, N-[6-(aminomethyl)-2-phenyl-2H-indazol-3-yl]-2-fluoro-5-(1-methyl-1H-pyrazol-3-yl)-4-(trifluoromethyl)benzamide]
1.3	Cc1ccccc1-n1nc2cc(C(N)=O)ccc2c1NC(=O)c1cc(-c2ccn(C)n2)c(C(F)(F)F)cc1F [Compound 77, 3-(2-Fluoro-5-(1-methyl-1H-pyrazol-3-yl)-4-(trifluoromethyl)benzamido)-2-(o-tolyl)-2H-indazole-6-carboxamide]
0.64	Cn1ccc(-c2cc(C(=O)Nc3c4cccc(CC(N)=O)c4nn3-c3ccccc3)c(F)cc2C(F)(F)F)n1 [Compound 95, N-(7-(2-Amino-2-oxoethyl)-2-phenyl-2H-indazol-3-yl)-2-fluoro-5-(1-methyl-1H-pyrazol-3-yl)-4-(trifluoromethyl)benzamide]
0.63	Cn1ccc(-c2cc(C(=O)Nc3c4ncc(C(N)=O)cc4nn3-c3ccccc3)c(F)cc2C(F)(F)F)n1 [Compound 87, 3-({[2-fluoro-5-(1-methyl-1H-pyrazol-3-yl)-4-(trifluoromethyl)phenyl]carbonyl}amino)-2-phenyl-2H-pyrazolo[4,3-b]pyridine-6-carboxamide]
0.57	Cn1ccc(-c2cc(C(=O)Nc3c4ccc(C(N)=O)cc4nn3-c3ccccc3)c(F)cc2C(F)(F)F)n1 [Compound 74, 3-(2-Fluoro-5-(1-methyl-1H-pyrazol-3-yl)-4-(trifluoromethyl)benzamido)-2-phenyl-2H-indazole-6-carboxamide]
